# Test results: patent US20070190523A1 (priority 2002, published 2007)
# Tested on: mutant HIV-1 with I84V/L90M mutations
# Assay type: cell-based
# Settings: I84V/L90M mutant
row,SMILES,I84V/L90M fold change
1,COc1ccc(S(=O)(=O)N(CC(C)C)CC(O)C(Cc2ccccc2)NC(=O)OC2COC3OCCC23)cc1OCP(=O)(O)O (stereo not drawn),− (≦3)
2,CC(C)CN(CC(O)C(Cc1ccc(OCP(=O)(O)O)cc1)NC(=O)OC1COC2OCCC12)S(=O)(=O)c1cccc(N)c1 (stereo not drawn),− (≦3)
3,CC(C)CN(CC(O)C(Cc1ccccc1)NC(=O)OC1COC2OCCC12)S(=O)(=O)c1ccc(OCP(=O)(O)O)cc1 (stereo not drawn),− (≦3)
4,"COc1ccc(S(=O)(=O)N(CC(C)C)C[C@@H](O)[C@H](Cc2ccc(OCP(=O)(Oc3ccccc3)Oc3ccccc3)cc2)NC(=O)OC2CCOC2)cc1 (stereo partly drawn) [OMe, phenol]",+ (>3 to ≦10)
5,COc1ccc(S(=O)(=O)N(CCN(C)C)CC(O)C(Cc2ccc(O)cc2)NC(=O)OC2COC3OCCC23)cc1 (stereo not drawn),− (≦3)
6,"CC(C)CN(CC(O)C(Cc1ccc(O)cc1)NC(=O)OC1COC2OCCC12)S(=O)(=O)c1cccc(N)c1 (stereo not drawn) [OH, m-NH2]",− (≦3)
7,CC(C)CN(CC(O)C(Cc1ccc(OCP(=O)(OCc2ccccc2)OCc2ccccc2)cc1)NC(=O)OC1COC2OCCC12)S(=O)(=O)c1ccc(C(F)(F)F)cc1 (stereo not drawn),− (≦3)
8,COc1ccc(S(=O)(=O)N(CCN(C)C)CC(O)C(Cc2ccc(OCc3ccccc3)cc2)NC(=O)OC2COC3OCCC23)cc1 (stereo not drawn),− (≦3)
9,CC(C)CN(CC(O)C(Cc1ccc(OCP(=O)(OCc2ccccc2)OCc2ccccc2)cc1)NC(=O)OC1COC2OCCC12)S(=O)(=O)c1ccccc1 (stereo not drawn),+ (>3 to ≦10)
10,CC(C)CN(CC(O)C(Cc1ccc(OCP(=O)(O)O)cc1)NC(=O)OC1COC2OCCC12)S(=O)(=O)c1ccc(N)cc1 (stereo not drawn),− (≦3)
11,CC(C)CN(CC(O)C(Cc1ccc(OCP(=O)(OCc2ccccc2)OCc2ccccc2)cc1)NC(=O)OC1COC2OCCC12)S(=O)(=O)c1cccc(N)c1 (stereo not drawn),− (≦3)
12,Cc1cccc(C)c1OCC(=O)NC(Cc1ccc(OCP(=O)(O)O)cc1)C(O)CN(CC(C)C)S(=O)(=O)c1ccc(N)cc1 (stereo not drawn),− (≦3)
13,COc1ccc(S(=O)(=O)N(CC(C)C)CC(O)C(Cc2ccccc2)NC(=O)OC2COC3OCCC23)cc1O (stereo not drawn),− (≦3)
14,CCOP(=O)(COc1cc(S(=O)(=O)N(CC(C)C)CC(O)C(Cc2ccccc2)NC(=O)OC2COC3OCCC23)ccc1O)OCC (stereo not drawn),− (≦3)
15,Cc1cccc(C)c1OCC(=O)NC(Cc1ccc(OCP(=O)(OCc2ccccc2)OCc2ccccc2)cc1)C(O)CN(CC(C)C)S(=O)(=O)c1ccc(N)cc1 (stereo not drawn),− (≦3)
16,CC(C)CN(CC(O)C(Cc1ccc(OCP(=O)(OCc2ccccc2)OCc2ccccc2)cc1)NC(=O)OC1COC2OCCC12)S(=O)(=O)c1ccc(N)cc1 (stereo not drawn),− (≦3)
17,CCOP(=O)(COc1ccc(CC(NC(=O)OC2COC3OCCC23)C(O)CN(CC(C)C)S(=O)(=O)c2cccc(N)c2)cc1)OCC (stereo not drawn),− (≦3)
18,"CC(C)CN(CC(O)C(Cc1ccc(O)cc1)NC(=O)OC1COC2OCCC12)S(=O)(=O)c1ccc(N)cc1 (stereo not drawn) [OH, p-NH2]",− (≦3)
19,"COc1ccc(S(=O)(=O)N(CC(C)C)C[C@@H](O)[C@H](Cc2ccc(OCP(=O)(O)O)cc2)NC(=O)OC2CCOC2)cc1 (stereo partly drawn) [OMe, OH]",+++ (>30)
20,CCOP(=O)(COc1ccc(CC(NC(=O)OC2COC3OCCC23)C(O)CN(CC(C)C)S(=O)(=O)c2ccc(N)cc2)cc1)OCC (stereo not drawn),− (≦3)
21,CCOC(=O)C(C)OP(=O)(Cc1ccc2c(c1)CCN(C[C@H](NC(=O)O[C@H]1CO[C@H]3OCC[C@H]31)[C@H](O)CN(CC(C)C)S(=O)(=O)c1ccc(OC)cc1)C2)Oc1ccccc1 (stereo partly drawn),+ (>3 to ≦10)
22,CCNc1ccc(S(=O)(=O)N(CC(C)C)CC(O)C(Cc2ccc(OCP(=O)(OCC)OCC)cc2)NC(=O)OC2COC3OCCC23)cc1 (stereo not drawn),− (≦3)
23,CC(C)CN(CC(O)C(Cc1ccccc1)NC(=O)OC1COC2OCCC12)S(=O)(=O)c1ccc(O)cc1 (stereo not drawn),− (≦3)
24,COc1ccc(S(=O)(=O)N(CC(C)C)CC(O)C(Cc2ccc(OCc3ccccc3)cc2)NC(=O)OC2COC3OCCC23)cc1 (stereo not drawn),− (≦3)
25,CCOP(=O)(COc1ccc(CC(NC(=O)OC2COC3OCCC23)C(O)CN(CC(C)C)S(=O)(=O)c2ccc([N+](=O)[O-])cc2)cc1)OCC (stereo not drawn),− (≦3)
26,"CC(C)CN(C[C@@H](O)[C@H](Cc1ccc(OCP(=O)(Oc2ccccc2)Oc2ccccc2)cc1)NC(=O)OC1CCOC1)S(=O)(=O)c1ccc(N)cc1 (stereo partly drawn) [NH2, phenol]",− (≦3)
27,CC(C)CN(CC(O)C(Cc1ccc(OCP(=O)(OCc2ccccc2)OCc2ccccc2)cc1)NC(=O)OC1COC2OCCC12)S(=O)(=O)c1ccc(C#N)cc1 (stereo not drawn),− (≦3)
28,Cc1ccc(C(=O)NC(Cc2ccc(OCP(=O)(OCc3ccccc3)OCc3ccccc3)cc2)C(O)CN(CC(C)C)S(=O)(=O)c2ccc(N)cc2)cc1O (stereo not drawn),+ (>3 to ≦10)
29,CCCCOC(=O)C(C)OP(=O)(COc1ccc(CC(NC(=O)OC2COC3OCCC23)C(O)CN(CC(C)C)S(=O)(=O)c2cccc(N)c2)cc1)Oc1ccccc1 (stereo not drawn),− (≦3)

# Same assay, conditions: fold difference in EC50 vs wild type, class symbols
row,SMILES,I84V/L90M fold change
1,CCOP(=O)(OCC)c1ccc(CN(C)CC(NC(=O)OC2COC3OCCC23)C(O)CN(CC(C)C)S(=O)(=O)c2ccc(OC)cc2)cc1 (stereo not drawn),− (≦3)
2,COc1ccc(S(=O)(=O)N(CC(C)C)CC(O)C(Cc2ccc(NCP(=O)(OCc3ccccc3)OCc3ccccc3)cc2)NC(=O)OC2COC3OCCC23)cc1 (stereo not drawn),− (≦3)
3,COc1ccc(S(=O)(=O)N(CC(C)C)CC(O)C(CC2=CCN(CCP(=O)(OCc3ccccc3)OCc3ccccc3)CC2)NC(=O)OC2COC3OCCC23)cc1 (stereo not drawn),+ (>3 to ≦10)
4,COC(=O)C(C)NP(=O)(COc1ccc(CC(NC(=O)OC2COC3OCCC23)C(O)CN(CC(C)C)S(=O)(=O)c2ccc(OC)cc2)cc1)Oc1ccccc1 (stereo not drawn) [drawing 608 R1=OPh R2=Ala-Me],− (≦3)
5,COc1ccc(S(=O)(=O)N(CC(C)C)CC(O)C(Cc2ccc(OCP(=O)(O)O)cc2)NC(=O)OC2COC3OCCC23)cc1 (stereo not drawn) [drawing 602 R1=OH R2=OH],− (≦3)
6,COc1ccc(S(=O)(=O)N(CC(C)C)CC(O)C(Cc2ccc(OCP(=O)(OC(C)C(=O)OC(C)C)OC(C)C(=O)OC(C)C)cc2)NC(=O)OC2COC3OCCC23)cc1 (stereo not drawn) [drawing 607 R1=Lac-iPr R2=Lac-iPr],− (≦3)
7,CCCCOC(=O)CNP(=O)(COc1ccc(CC(NC(=O)OC2COC3OCCC23)C(O)CN(CC(C)C)S(=O)(=O)c2ccc(OC)cc2)cc1)Oc1ccccc1 (stereo not drawn) [drawing 608 R1=OPh R2=Gly-Bu],− (≦3)
8,CCNP(=O)(COc1ccc(CC(NC(=O)OC2COC3OCCC23)C(O)CN(CC(C)C)S(=O)(=O)c2ccc(OC)cc2)cc1)NCC (stereo not drawn) [drawing 606 R1=NHEt R2=NHEt],− (≦3)
9,COc1ccc(S(=O)(=O)N(CC(C)C)CC(O)C(Cc2ccc(OCP(=O)(OC(C)C)OC(C)C)cc2)NC(=O)OC2COC3OCCC23)cc1 (stereo not drawn) [drawing 602 R1=OiPr R2=OiPr],− (≦3)
10,CCOP(=O)(CCC1=CCN(CC(NC(=O)OC2COC3OCCC23)C(O)CN(CC(C)C)S(=O)(=O)c2ccc(OC)cc2)CC1)OCC (stereo not drawn),+ (>3 to ≦10)
11,CCOP(=O)(Cc1ccc(NCC(NC(=O)OC2COC3OCCC23)C(O)CN(CC(C)C)S(=O)(=O)c2ccc(OC)cc2)cc1)OCC (stereo not drawn),+ (>3 to ≦10)
12,COc1ccc(S(=O)(=O)N(CC(C)C)CC(O)C(Cc2ccc(OCP(=O)(O)OC(C)C(=O)O)cc2)NC(=O)OC2COC3OCCC23)cc1 [drawing 609 R1=OH R2=(R)Lac-OH],− (≦3)
13,CCOP(=O)(CN1CC=C(CC(NC(=O)OC2COC3OCCC23)C(O)CN(CC(C)C)S(=O)(=O)c2ccc(OC)cc2)CC1)OCC (stereo not drawn),+ (>3 to ≦10)
14,CCOP(=O)(CNc1ccc(CC(NC(=O)OC2COC3OCCC23)C(O)CN(CC(C)C)S(=O)(=O)c2ccc(OC)cc2)cc1)OCC (stereo not drawn),− (≦3)
15,COc1ccc(S(=O)(=O)N(CC(C)C)CC(O)C(Cc2ccc(OCP(=O)(OCc3ccccc3)OCc3ccccc3)cc2)NC(=O)OC2COC3OCCC23)cc1 (stereo not drawn) [drawing 602 R1=OBn R2=OBn],− (≦3)
16,COc1ccc(S(=O)(=O)N(CC(C)C)CC(O)C(Cc2ccc(OCP(=O)(NC(C)C(=O)OC(C)C)Oc3ccccc3)cc2)NC(=O)OC2COC3OCCC23)cc1 (stereo not drawn) [drawing 608 R1=OPh R2=(D)Ala-iPr],− (≦3)
17,CCOC(=O)C(C)NP(=O)(COc1ccc(CC(NC(=O)OC2COC3OCCC23)C(O)CN(CC(C)C)S(=O)(=O)c2ccc(OC)cc2)cc1)OCc1ccccc1 (stereo not drawn) [drawing 608 R1=OBn R2=Ala-Et],− (≦3)
18,CCOC(=O)C(NP(=O)(COc1ccc(CC(NC(=O)OC2COC3OCCC23)C(O)CN(CC(C)C)S(=O)(=O)c2ccc(OC)cc2)cc1)NC(C(=O)OCC)C(C)C)C(C)C (stereo not drawn) [drawing 606 R1=Val-Et R2=Val-Et],− (≦3)
19,CCOP(=O)(CON=Cc1ccc(CC(NC(=O)OC2COC3OCCC23)C(O)CN(CC(C)C)S(=O)(=O)c2ccc(OC)cc2)cc1)OCC (stereo not drawn) [drawing 615 R1=Et R2=Et],− (≦3)
20,CCCCOC(=O)C(C)NP(=O)(COc1ccc(CC(NC(=O)OC2COC3OCCC23)C(O)CN(CC(C)C)S(=O)(=O)c2ccc(OC)cc2)cc1)Oc1ccccc1 (stereo not drawn) [drawing 608 R1=OPh R2=Ala-Bu],− (≦3)
21,CCOC(=O)C(C)OP(=O)(COc1ccc(CC(NC(=O)OC2COC3OCCC23)C(O)CN(CC(C)C)S(=O)(=O)c2ccc(OC)cc2)cc1)OC(C)C(=O)OCC (stereo not drawn) [drawing 607 R1=Lac-Et R2=Lac-Et],− (≦3)
22,CCOP(=O)(OCC)c1ccc(CC(NC(=O)OC2COC3OCCC23)C(O)CN(CC(C)C)S(=O)(=O)c2ccc(OC)cc2)cc1 (stereo not drawn) [drawing 604 R1=OEt R2=OEt],− (≦3)
23,COc1ccc(S(=O)(=O)N(CC(C)C)CC(O)C(Cc2ccc(OCP(=O)(O)OC(C)C(=O)O)cc2)NC(=O)OC2COC3OCCC23)cc1 (stereo not drawn) [drawing 609 R1=OH R2=Lac-OH],− (≦3)
24,CCOP(=O)(Cc1ccc(N(C)CC(NC(=O)OC2COC3OCCC23)C(O)CN(CC(C)C)S(=O)(=O)c2ccc(OC)cc2)cc1)OCC (stereo not drawn),+ (>3 to ≦10)
25,COc1ccc(S(=O)(=O)N(CC(C)C)CC(O)C(Cc2ccc(OCP(=O)(NC(C)C(=O)OC(C)C)Oc3ccccc3)cc2)NC(=O)OC2COC3OCCC23)cc1 (stereo not drawn) [drawing 608 R1=OPh R2=Ala-iPr],− (≦3)
